Test results taken from PubChem BioAssay AID1918999 (Molecular Pharmacology Branch, DTP, NCI, 2023).

Test system: 556581-035-R-J1-PDC complex spheroid growth
Assay: Anticancer human tumor 556581-035-R-J1-PDC patient-derived ovarian carcinoma cell line growth inhibition [AhR]
Conditions: for IC50: curve of first compound; for viability, T/C: stronger effect = lower value
Excerpt: Multicellular complex tumor spheroid response to aryl hydrocarbon receptor antagonists in combination with a variety of drugs and investigational agents in selected tumor cell lines
The current study was undertaken to assess response to aryl hydrocarbon receptor antagonists in combination with standard-of-care drugs and investigational agents in solid tumor complex spheroid models. Complex spheroids include a stromal component modeled by human endothelial cells (HUVEC) and fibroblasts modeled by human mesenchymal stem cells (MSCs). The concentration ranges selected for each drug and investigational agent were based upon clinically achievable concentrations if the clinical Cmax of the agent was known.
Compounds. The drugs and investigational agents: BAY 2416964 (NSC825713), GNF351 (NSC835774), CH-223191 (NSC835775), CPI-455 (NSC825282), aza-TdCyd (NSC777586), decitabine (NSC127716), belinostat (NSC758774), entinostat (NSC756642), pevonedistat (NSC761192), tazemetostat (NSC777109), talazoparib (NSC765396), olaparib (NSC753686), selinexor (NSC780203), nedisertib (M3814, NSC802822), bortezomib (NSC756655), venetoclax (NSC766270), doxorubicin (NSC123127), elimusertib (BAY189344, NSC800525), ceralasertib (AZD6738, NSC777638), TAK-243 (NSC785004), alisertib (NSC759677), etoposide (NSC141540), topotecan (NSC609699), eribulin (NSC707389), gemcitabine (NSC613327), carboplatin (NSC241240), cisplatin (NSC119875), and SN-38 (NSC673596) were obtained from the National Cancer Institute (NCI) Developmental Therapeutics Program Chemical Repository (32). The FDA-approved anticancer drug set is available from the Developmental Therapeutics Program at https://dtp.cancer.gov/organization/dscb/obtaining/available plates.htm. […] The stock solutions were prepared in dimethyl sulfoxide (DMSO, Sigma-Aldrich, St. Louis, MO, cat. D2650), except for the platinum compounds which were prepared in saline (Quality Biological, Gaithersburg, MD, cat. 114-055-101), at 800-fold the tested concentration and stored at -70 degrees C prior to their use. All drugs and investigational agents were tested over a range starting from a high concentration at or near the clinical Cmax and decreasing in half-log increments. If the clinical Cmax for an agent had not been determined, the highest concentration tested was 10 microM (Table 1).
Cell Culture. All cells were maintained in an incubator at 37 degrees C and 5% CO2 with 95% humidity. The PDC lines were cultured according to standard operating procedures established by the NCI PDMR (https://pdmr.cancer.gov). Briefly, all PDCs were thawed and cultured in Matrigel-coated flasks prepared with a working solution of 1X Ham's F-12 nutrient mix, without supplementation (Invitrogen, Waltham, MA, cat. 11765054), 100 U/mL penicillin-streptomycin (Invitrogen, cat. 15140122), and 2.5% Matrigel (Corning Inc., Corning, NY, cat. 354248) for the first three passages. All PDCs were cultured in complete DMEM/F-12 media containing advanced DMEM/F-12 (Invitrogen, cat. 12634028), 4.9% defined fetal bovine serum, heat inactivated (HyClone Laboratories Inc., Logan, UT, cat. SH30070.03HI), 389 ng/mL hydrocortisone (Sigma-Aldrich, cat. H4001), 9.7 ng/mL human EGF recombinant protein (Invitrogen, cat. PHG0313), 23.4 microg/mL adenine (Sigma-Aldrich, cat. A2786), 97.3 U/mL penicillin-streptomycin (Invitrogen, cat. 15140122), 1.9 mM L-glutamine (Invitrogen, cat. 25030081), and 9.7 microM Y-27632 dihydrochloride (Tocris Bioscience, Bristol, United Kingdom, cat. 1254). The PDCs were cultured in complete DMEM/F12 media without 10 microM Y-27632 dihydrochloride for at least two passages prior to the screen. The established cell lines NCI-H1341 and […] were cultured in DMEM/F-12, HEPES (Invitrogen, cat. 11330032), 5% defined fetal bovine serum (HyClone Laboratories Inc., cat. SH30070.03), ITS premix universal culture supplement [insulin (5 microg/mL), transferrin (5 microg/mL), and selenious acid (5 ng/mL)] […]

[1] = second compound 0.1 µM, first compound 0.0316 µM
[2] = second compound 0.1 µM, first compound 0.1 µM
[3] = second compound 0.316 µM, first compound 0.0316 µM
[4] = second compound 0.316 µM, first compound 0.1 µM
[5] = second compound 1 µM, first compound 0.0316 µM
[6] = second compound 1 µM, first compound 0.1 µM
[7] = second compound 3.16 µM, first compound 0.0316 µM
[8] = second compound 3.16 µM, first compound 0.1 µM
[9] = second compound 10 µM, first compound 0.0316 µM
[10] = second compound 10 µM, first compound 0.1 µM
[11] = second compound 0.1 µM, first compound 0.316 µM
[12] = second compound 0.1 µM, first compound 1 µM
[13] = second compound 0.1 µM, first compound 3.16 µM
[14] = second compound 0.1 µM, first compound 10 µM
[15] = second compound 0.316 µM, first compound 0.316 µM
[16] = second compound 0.316 µM, first compound 1 µM
[17] = second compound 0.316 µM, first compound 3.16 µM
[18] = second compound 0.316 µM, first compound 10 µM
[19] = second compound 1 µM, first compound 0.316 µM
[20] = second compound 1 µM, first compound 1 µM
[21] = second compound 1 µM, first compound 3.16 µM
[22] = second compound 1 µM, first compound 10 µM
[23] = second compound 3.16 µM, first compound 0.316 µM
[24] = second compound 3.16 µM, first compound 1 µM
[25] = second compound 3.16 µM, first compound 3.16 µM
[26] = second compound 3.16 µM, first compound 10 µM
[27] = second compound 10 µM, first compound 0.316 µM
[28] = second compound 10 µM, first compound 1 µM
[29] = second compound 10 µM, first compound 3.16 µM
[30] = second compound 10 µM, first compound 10 µM
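Wherever viability, T/C is given: compound exposure lasted 7 days; 100% = DMSO vehicle control growth.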

| SMILES | IC50 (second compound 0.1 µM) | IC50 (second compound 0.316 µM) | IC50 (second compound 1 µM) | IC50 (second compound 3.16 µM) | IC50 (second compound 10 µM) | viability, T/C [1] | viability, T/C [2] | viability, T/C [3] | viability, T/C [4] | viability, T/C [5] | viability, T/C [6] | viability, T/C [7] | viability, T/C [8] | viability, T/C [9] | viability, T/C [10] | viability, T/C [11] | viability, T/C [12] | viability, T/C [13] | viability, T/C [14] | viability, T/C [15] | further results |
| --- | --- | --- | --- | --- | --- | --- | --- | --- | --- | --- | --- | --- | --- | --- | --- | --- | --- | --- | --- | --- | --- |
| CC[C@@]1(O)C(=O)OCc2c1cc1n(c2=O)Cc2cc3c(CN(C)C)c(O)ccc3nc2-1 + CC(CO)NC(=O)c1cc(-c2ccc(Cl)cc2)nn(-c2cnn(C)c2)c1=O | > 100 nM | > 100 nM | > 100 nM | 87.8 nM | 84.6 nM | 69.7% | 51.7% | 69.5% | 58.6% | 75% | 57.3% | 65.9% | 47.8% | 70.5% | 46.5% |  |  |  |  |  | viability, T/C (second compound 0.1 µM, first compound 0.000316 µM): 102%; viability, T/C (second compound 0.1 µM, first compound 0.001 µM): 95.5%; viability, T/C (second compound 0.1 µM, first compound 0.00316 µM): 90.4%; viability, T/C (second compound 0.1 µM, first compound 0.01 µM): 86.8%; viability, T/C (second compound 0.316 µM, first compound 0.000316 µM): 97.2%; viability, T/C (second compound 0.316 µM, first compound 0.001 µM): 98%; viability, T/C (second compound 0.316 µM, first compound 0.00316 µM): 92.9%; viability, T/C (second compound 0.316 µM, first compound 0.01 µM): 80.6%; viability, T/C (second compound 1 µM, first compound 0.000316 µM): 101%; viability, T/C (second compound 1 µM, first compound 0.001 µM): 110%; viability, T/C (second compound 1 µM, first compound 0.00316 µM): 93.6%; viability, T/C (second compound 1 µM, first compound 0.01 µM): 80.8%; viability, T/C (second compound 3.16 µM, first compound 0.000316 µM): 90.5%; viability, T/C (second compound 3.16 µM, first compound 0.001 µM): 97%; viability, T/C (second compound 3.16 µM, first compound 0.00316 µM): 91.4%; viability, T/C (second compound 3.16 µM, first compound 0.01 µM): 78.2%; viability, T/C (second compound 10 µM, first compound 0.000316 µM): 100%; viability, T/C (second compound 10 µM, first compound 0.001 µM): 101%; viability, T/C (second compound 10 µM, first compound 0.00316 µM): 94.7%; viability, T/C (second compound 10 µM, first compound 0.01 µM): 93.2% |
| COc1cc(C2c3cc4c(cc3C(OC3OC5COC(C)OC5C(O)C3O)C3COC(=O)C23)OCO4)cc(OC)c1O (stereo not given) + CC(CO)NC(=O)c1cc(-c2ccc(Cl)cc2)nn(-c2cnn(C)c2)c1=O | > 10000 nM | 8090 nM | > 10000 nM | 6630 nM | 7380 nM | 111% | 117% | 95.4% | 102% | 109% | 104% | 103% | 102% | 105% | 98.8% | 80% | 62.9% | 66% | 50.9% | 85.6% | viability, T/C [16]: 67.8%; viability, T/C [17]: 72.8%; viability, T/C [18]: 44.6%; viability, T/C [19]: 81.9%; viability, T/C [20]: 62.6%; viability, T/C [21]: 60.5%; viability, T/C [22]: 51.8%; viability, T/C [23]: 80%; viability, T/C [24]: 74.5%; viability, T/C [25]: 59.9%; viability, T/C [26]: 44.5%; viability, T/C [27]: 81.7%; viability, T/C [28]: 73.5%; viability, T/C [29]: 59.7%; viability, T/C [30]: 46.4% |
| Nc1ccn(C2OC(CO)C(O)C2(F)F)c(=O)n1 (stereo not given) + CC(CO)NC(=O)c1cc(-c2ccc(Cl)cc2)nn(-c2cnn(C)c2)c1=O | < 31.6 nM | < 31.6 nM | < 31.6 nM | < 31.6 nM | < 31.6 nM | 37% | 40.3% | 36.6% | 35.2% | 35% | 36.5% | 32.8% | 37.3% | 37.4% | 34.4% | 35.8% | 35.8% | 37.5% | 31.4% | 39.2% | viability, T/C [16]: 41.1%; viability, T/C [17]: 32%; viability, T/C [18]: 29.3%; viability, T/C [19]: 36.5%; viability, T/C [20]: 38.5%; viability, T/C [21]: 36.2%; viability, T/C [22]: 36.6%; viability, T/C [23]: 36.2%; viability, T/C [24]: 38.3%; viability, T/C [25]: 35.5%; viability, T/C [26]: 34.3%; viability, T/C [27]: 42.5%; viability, T/C [28]: 40.6%; viability, T/C [29]: 39.6%; viability, T/C [30]: 36% |
